Source: publication PMC6009873, “Discovery of novel dual inhibitors of receptor tyrosine kinases EGFR and PDGFR-β related to anticancer drug resistance” (Journal of Enzyme Inhibition and Medicinal Chemistry, 2017)
One block for each compound: values may come before it.

Assays:
[1] = target: T1, EGFR (Homo sapiens, UniProt P00533); assay: Receptor tyrosine kinase inhibition, [γ-33P]-ATP competition FlashPlate assay; format: biochemical; settings: Ki determined from IC50, competitive binding mode, 15 µM ATP, Km ATP 1.3 µM; n.a. = not active
T1 construct: GST; made in house; host or cells: Sf9 insect cells (baculovirus)
Procedure: (§1) The protein kinases were expressed by means of the baculovirus expression system in Sf9 insect cells as human recombinant GST fusion proteins and purified by affinity chromatography using GSH-agarose. The kinase identity was confirmed by mass spectrometry using LC-ESI-MS/MS technique.
The measuring of protein kinase activity was performed in 96-well FlashPlates^TM from Perkin Elmer in a 50 µL reaction volume. The reaction mixture consisted of 20 µL of assay buffer solution, 5 µL of ATP solution in water, 5 µL of used test compound in a 10% dmso solution and, finally, a premixture of each 10 µL of used substrate and enzyme solutions. […] The final kinase concentration has been 10 ng/50 µL for EGFR and 20 ng/50 µL for PDGFR-β. […] The reaction mixtures were incubated at 30 °C for 60 min. The reaction was stopped with 50 µL of a 2% (v/v) solution of phosphoric acid. Then the plates were aspirated and washed twice with 200 µL of water and a 0.9% solution of sodium chloride. The incorporation of ^33 P was determined with a microplate scintillation counter. Ten different inhibitor concentrations were measured in a range of 3 nM to 100 µM. The residual activity (%) and the IC50 values were finally calculated.

[2] = target: T2, PDGFR-β (Homo sapiens, UniProt P09619); assay: as above; format: biochemical; settings: for Ki / Ki values PDGFR-β: Ki determined from IC50, competitive binding mode, 15 µM ATP, Km ATP 0.989 µM, n.a. = not active
T2 construct: GST; made in house; host or cells: Sf9 insect cells (baculovirus)
Procedure: as §1
The measuring of protein kinase activity was performed in 96-well FlashPlates^TM from Perkin Elmer in a 50 µL reaction volume. The reaction mixture consisted of 20 µL of assay buffer solution, 5 µL of ATP solution in water, 5 µL of used test compound in a 10% dmso solution and, finally, a premixture of each 10 µL of used substrate and enzyme solutions. The assay buffer solution contained 70 mM of HEPES-NAOH pH 7.5, each 3 mM of magnesium chloride and manganese(II) chloride, 3 µM of sodium orthovanadate, 1.2 mM of DTT, 50 µg/mL of PEG20000 and finally 15 µM of [γ-^33 P]-ATP making approximately 9 × 10^5 cpm per well. The final kinase concentration has been 10 ng/50 µL for EGFR and 20 ng/50 µL for PDGFR-β. The substrate was Poly(Glu,Tyr)4:1 for EGFR and Poly(Ala, Glu, Lys, Tyr)6:2:5.1 for PDFGR-β, both used in a concentration of 125 ng/50 µL. The reaction mixtures were incubated at 30 °C for 60 min. The reaction was stopped with 50 µL of a 2% (v/v) solution of phosphoric acid. Then the plates were aspirated and washed twice with 200 µL of water and a 0.9% solution of sodium chloride. The incorporation of ^33 P was determined with a microplate scintillation counter. Ten different inhibitor concentrations were measured in a range of 3 nM to 100 µM. The residual activity (%) and the IC50 values were finally calculated. From the IC50 values the affinity constants Ki were determined using the equation: IC50 =1/2 [Etotal]+Ki × (1 + [S]/Km) following a competitive inhibitor binding mode[19] (Table 1). The used Km values for ATP have been measured with 1.3 µM for EGFR and with 0.989 µM for PDGFR-β.

[3] = system: DU-145 prostate cancer cell line; assay: Cellular growth inhibition assay (NCI, SRB staining); format: cell-based; settings: Homo sapiens; DU-145, 10 µM, 48 h; read-out: Compound growth inhibition
Procedure: (§2) Cells were inoculated into 96 well microtiter plates in […] at plate densities ranging from 5000 to 40.000 cells per well depending from the individual cell doubling time. Then the cell- containing plates were incubated at 37 °C under an air atmosphere containing 5% of carbon dioxide and with a relative humidity for 24 h. After that time two plates of each cell line were fixed in situ with TCA as control before drug addition. Then the drug containing dmso stock solutions were used and mixed with the cell culture medium containing […] of gentamicin. Aliquots of […] of the respective dilution were added to the preincubated plates reaching a final drug concentration of 10 µM. The plates were incubated again under the preincubation conditions as described for 48 h. Then cells were fixed under addition of 50 ml of a cold 50% solution of TCA reaching a final concentration of 10% TCA. Incubation continued for 60 min at 4 °C. The supernatant was discarded and the plates were washed with water for five times and dried at air. Then a sulforhodamine (SRB) solution (0.4%) in acetic acid (1%) was added to each well and plates were incubated again for 10 min. The unbound dye was removed by washing for five times with an acetic acid solution (1%) and the plates were dried at air. The bound stain was solubilised with a […] solution of trizma base and the absorbance was measured with a plate reader at a wavelength of 515 nm. The growth inhibition measured as lowered net protein increase after SRB staining was determined in relation to the untreated control cells (Table 2).
(§3) In first screening studies carried out with an initial concentration of 10 µM by the National Cancer Institute of Health (NCI) the growth inhibition of respective non-small cell lung cancer (NSCLC) cell lines and of prostate cancer cell lines was determined.

[4] = system: NCI-H23 non-small cell lung cancer cell line; assay: as above; format: cell-based; settings: Homo sapiens; NCI-H23, 10 µM, 48 h; read-out: Compound growth inhibition
Procedure: as §2, §3

[5] = system: PC-3 prostate cancer cell line; assay: as above; format: cell-based; settings: Homo sapiens; PC-3, 10 µM, 48 h; read-out: Compound growth inhibition
Procedure: as §2, §3

[6] = system: EKV X non-small cell lung cancer cell line; assay: as above; format: cell-based; settings: Homo sapiens, EKVX, 48 h, read-out: Compound growth inhibition
Procedure: as §2, §3

[7] = system: NCI-H322M non-small cell lung cancer cell line; assay: as above; format: cell-based; settings: Homo sapiens, 48 h, read-out: Compound growth inhibition
Procedure: as §2, §3

[8] = system: NSCLC cell lines; assay: Cellular growth inhibition assay (NCI, SRB staining), span over the cell lines; format: cell-based; settings: Homo sapiens, span over EKV X, NCI-H23, NCI-H322M, read-out: growth inhibition rates in the NSCLC cell lines
Procedure: as §2, §3

[9] = system: DU-145 prostate cancer cell line; set-up: method as in PMID 19179890, PMID 16926630; settings: DU-145, reported for comparison; cited from earlier work
[10] = system: NCI-H23 non-small cell lung cancer cell line; set-up: method as in PMID 19179890, PMID 16926630; settings: NCI-H23, reported for comparison; cited from earlier work
[11] = system: PC-3 prostate cancer cell line; set-up: method as in PMID 19179890, PMID 16926630; settings: PC-3, reported for comparison; cited from earlier work
[12] = system: prostate cancer cell lines; assay: Cellular growth inhibition assay (NCI, SRB staining), span over the cell lines; format: cell-based; settings: Homo sapiens; span over PC-3 and DU-145, 10 µM; read-out: growth inhibition rates in the prostate cancer cell lines
Procedure: as §2, §3

T1 sequence (P00533 25-1210): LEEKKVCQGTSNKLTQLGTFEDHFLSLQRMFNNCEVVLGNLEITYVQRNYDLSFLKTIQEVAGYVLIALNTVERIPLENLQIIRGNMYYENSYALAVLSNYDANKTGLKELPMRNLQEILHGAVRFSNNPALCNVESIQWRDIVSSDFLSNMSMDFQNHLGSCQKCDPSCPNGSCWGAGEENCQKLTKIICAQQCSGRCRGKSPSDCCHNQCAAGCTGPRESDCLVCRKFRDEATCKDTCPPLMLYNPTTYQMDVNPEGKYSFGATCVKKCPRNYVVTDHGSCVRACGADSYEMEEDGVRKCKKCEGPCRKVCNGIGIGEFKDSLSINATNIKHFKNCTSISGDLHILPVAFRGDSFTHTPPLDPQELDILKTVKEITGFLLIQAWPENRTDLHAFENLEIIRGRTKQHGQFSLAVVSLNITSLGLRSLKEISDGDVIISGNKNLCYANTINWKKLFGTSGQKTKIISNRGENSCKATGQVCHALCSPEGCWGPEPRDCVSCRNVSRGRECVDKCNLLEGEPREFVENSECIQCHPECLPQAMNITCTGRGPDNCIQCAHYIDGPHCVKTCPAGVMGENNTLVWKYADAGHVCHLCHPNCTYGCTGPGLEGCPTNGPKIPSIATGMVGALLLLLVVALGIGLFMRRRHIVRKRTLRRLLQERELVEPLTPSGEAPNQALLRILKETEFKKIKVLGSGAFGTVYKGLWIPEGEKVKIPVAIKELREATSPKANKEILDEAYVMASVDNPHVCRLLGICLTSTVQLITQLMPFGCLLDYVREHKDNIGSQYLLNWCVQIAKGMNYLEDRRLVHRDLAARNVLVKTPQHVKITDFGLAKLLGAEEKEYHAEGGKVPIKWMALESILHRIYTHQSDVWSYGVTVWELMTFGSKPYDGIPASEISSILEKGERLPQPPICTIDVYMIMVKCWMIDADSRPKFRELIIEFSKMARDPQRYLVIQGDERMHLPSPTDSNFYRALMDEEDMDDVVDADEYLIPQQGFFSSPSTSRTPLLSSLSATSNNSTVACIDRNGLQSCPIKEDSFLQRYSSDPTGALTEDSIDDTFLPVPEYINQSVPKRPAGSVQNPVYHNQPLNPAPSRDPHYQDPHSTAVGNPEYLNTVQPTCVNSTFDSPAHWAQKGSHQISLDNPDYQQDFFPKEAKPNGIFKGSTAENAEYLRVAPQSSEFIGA
T2 sequence (P09619 33-1106): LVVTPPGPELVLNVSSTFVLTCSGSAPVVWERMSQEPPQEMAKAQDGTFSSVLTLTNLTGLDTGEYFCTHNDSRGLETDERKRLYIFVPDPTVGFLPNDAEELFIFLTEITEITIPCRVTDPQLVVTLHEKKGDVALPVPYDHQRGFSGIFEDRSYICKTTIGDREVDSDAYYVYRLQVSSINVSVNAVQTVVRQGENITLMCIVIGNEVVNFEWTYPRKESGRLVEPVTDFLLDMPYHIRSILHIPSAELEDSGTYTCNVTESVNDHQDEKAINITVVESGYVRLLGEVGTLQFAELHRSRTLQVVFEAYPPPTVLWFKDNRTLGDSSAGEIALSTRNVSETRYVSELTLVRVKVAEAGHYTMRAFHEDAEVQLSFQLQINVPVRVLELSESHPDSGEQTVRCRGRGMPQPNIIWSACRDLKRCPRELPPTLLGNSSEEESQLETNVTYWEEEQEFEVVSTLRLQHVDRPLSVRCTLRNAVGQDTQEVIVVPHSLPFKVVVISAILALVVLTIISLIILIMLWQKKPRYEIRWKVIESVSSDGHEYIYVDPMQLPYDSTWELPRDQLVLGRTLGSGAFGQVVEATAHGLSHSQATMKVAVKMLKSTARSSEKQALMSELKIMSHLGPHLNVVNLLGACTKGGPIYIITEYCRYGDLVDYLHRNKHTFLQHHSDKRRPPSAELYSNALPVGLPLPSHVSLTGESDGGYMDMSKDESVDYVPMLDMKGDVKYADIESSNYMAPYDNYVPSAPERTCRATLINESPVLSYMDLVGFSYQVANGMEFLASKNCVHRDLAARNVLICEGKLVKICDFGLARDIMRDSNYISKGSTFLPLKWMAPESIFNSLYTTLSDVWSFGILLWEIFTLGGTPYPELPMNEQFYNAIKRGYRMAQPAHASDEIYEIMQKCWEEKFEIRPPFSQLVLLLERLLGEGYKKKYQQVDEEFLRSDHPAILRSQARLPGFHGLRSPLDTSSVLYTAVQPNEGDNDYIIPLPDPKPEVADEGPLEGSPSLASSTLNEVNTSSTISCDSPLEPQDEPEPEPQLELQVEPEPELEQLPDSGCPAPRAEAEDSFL

SMILES: CC(C)Oc1ccc(Nc2nc(N)nc3[nH]c4ccc(O)cc4c23)cc1 [Compound 5e, 2-Amino-4-((4-isopropoxyphenyl)amino)-9H-pyrimido[4,5-b]indol-6-ol]
Ki [1]: 574 ± 110 nM | Ki [2]: 1940 ± 218 nM

SMILES: Nc1nc(Nc2ccc(Cl)cc2)c2c(n1)[nH]c1ccc(O)cc12 [Compound 5g, 2-Amino-4-((4-chlorophenyl)amino)-9H-pyrimido[4,5-b]indol-6-ol]
Ki [1]: 686 ± 82 nM | Ki values PDGFR-β [2]: not active

SMILES: CCOc1ccc(Nc2nc(N)nc3[nH]c4ccc(O)cc4c23)cc1 [Compound 5d, 2-Amino-4-((4-ethoxyphenyl)amino)-9H-pyrimido[4,5-b]indol-6-ol]
Ki [1]: 935 ± 84 nM | Ki [2]: 1910 ± 150 nM

SMILES: CCOc1cccc(Nc2nc(N)nc3[nH]c4ccc(O)cc4c23)c1 [Compound 5a, 2-Amino-4-((3-ethoxyphenyl)amino)-9H-pyrimido[4,5-b]indol-6-ol]
Ki [1]: 181 ± 14 nM | Ki values PDGFR-β [2]: not active | inhibition at 10 µM [3]: 51% | inhibition at 10 µM [4]: 32% | inhibition at 10 µM [5]: 25% | inhibition at 10 µM [6]: 71% | inhibition at 10 µM [7]: 35% | inhibition at 10 µM [8]: 32 to 71%

SMILES: Nc1nc(Nc2ccc(Br)cc2)c2c(n1)[nH]c1ccc(O)cc12 [Compound 5h, 2-Amino-4-((4-bromophenyl)amino)-9H-pyrimido[4,5-b]indol-6-ol]
Ki [1]: 475 ± 143 nM | Ki [2]: 3230 ± 195 nM

SMILES: C#Cc1ccc(Nc2nc(N)nc3[nH]c4ccc(O)cc4c23)cc1 [Compound 5f, 2-Amino-4-((4-ethinylphenyl)amino)-9H-pyrimido[4,5-b]indol-6-ol]
Ki [1]: 421 ± 66 nM | Ki values PDGFR-β [2]: not active

SMILES: CC(C)Oc1cccc(Nc2nc(N)nc3[nH]c4ccc(O)cc4c23)c1 [Compound 5b, 2-Amino-4-((3-isopropoxyphenyl)amino)-9H-pyrimido[4,5-b]indol-6-ol]
Ki values EGFR [1]: lost | Ki [2]: 2750 ± 184 nM

SMILES: C#Cc1cccc(Nc2ncnc3cc(OCCOC)c(OCCOC)cc23)c1 [erlotinib]
growth inhibition rate [9]: 45% | growth inhibition rate [10]: 20% | growth inhibition rate [11]: 40%

SMILES: COc1ccc(COc2ccc(Nc3nc(N)nc4[nH]c5ccc(O)cc5c34)cc2)cc1 [Compound 5i]
Ki [1]: 413 ± 111 nM | Ki [2]: 72 ± 15 nM | inhibition at 10 µM [3]: 15% | inhibition at 10 µM [4]: 9% | inhibition at 10 µM [5]: 25% | inhibition at 10 µM [6]: 29% | inhibition at 10 µM [7]: 1% | inhibition at 10 µM [8]: 1 to 29% | inhibition at 10 µM [12]: 15 to 25%

SMILES: C#Cc1cccc(Nc2nc(N)nc3[nH]c4ccc(O)cc4c23)c1 [Compound 5c, 2-Amino-4-((3-ethinylphenyl)amino)-9H-pyrimido[4,5-b]indol-6-ol]
Ki [1]: 149 ± 66 nM | Ki [2]: 3530 ± 200 nM

Further lines, with some results ahead:

Ki [1]: 132 ± 99 nM | Ki [2]: 209 ± 15 nM
SMILES: COc1cccc(COc2ccc(Nc3nc(N)nc4[nH]c5ccc(O)cc5c34)cc2)c1 [Compound 5j]

Ki [1]: 189 ± 27 nM | Ki [2]: 3660 ± 210 nM | decrease in the PDGFR-β affinity by a factor ([2]; compared to the 2-amino compound 5k): fifty
SMILES: Oc1ccc2[nH]c3ncnc(Nc4ccc(OCc5cccc(F)c5)cc4)c3c2c1 [Compound 5m]

Ki [1]: 170 ± 85 nM | Ki [2]: 81 ± 10 nM
SMILES: Nc1nc(Nc2ccc(OCc3cccc(F)c3)cc2)c2c(n1)[nH]c1ccc(O)cc12 [Compound 5k]
inhibition at 10 µM [3]: 90% | inhibition at 10 µM [4]: 93% | inhibition at 10 µM [5]: 95% | inhibition at 10 µM [6]: 90% | inhibition at 10 µM [7]: 96%

Ki [1]: 103 ± 37 nM | Ki [2]: 213 ± 35 nM
SMILES: COc1ccc(COc2ccc(Nc3nc(N)nc4[nH]c5ccc(O)cc5c34)cc2Cl)cc1 [Compound 5l, 2-Amino-4-((3-chloro-4-((4-methoxybenzyl)oxy)phenyl)amino)-9H-pyrimido[4,5-b]indol-6-ol]
